Laboratory results published in patent US12144792B2, “Therapeutic agents for neurodegenerative diseases” (priority 2016, dated 2024).

What was measured:
[1] = test system: Mucopolysaccharidosis Type IIIB (MPS IIIB) patient fibroblasts; experiment: Lysosomal volume via LysoTracker; type: cell-based, human; conditions: 1 mM, 6 days, vs untreated
[2] = test system: patients with amyotrophic lateral sclerosis (ALS); experiment: Case studies, medical examination; type: in vivo, human
Text: The results were documented by video.

[3] = test system: Tay-Sachs disease patient fibroblasts; experiment: Glycosphingolipid (GSL) levels via HPLC; type: cell-based, human; conditions: 1 mM for 6 days, p<0.05
[4] = test system: patient with oligosymptomatic MSA-C; experiment: Gait analysis; type: in vivo, human; conditions: Ex. 8 Patient 3, MSA-C; 3 then 5 gram per day; after one month
Method: After one month of treatment, a further examination was carried out.
Treatment was again suspended and the patient was evaluated three weeks later.

patients with vertigo = conditions: used in France to treat acute vertigo since 1957; long-term safety not determined; cited from earlier work
[5] = test system: patients with cerebellar ataxia; conditions: cited from earlier work
[6] = test system: Niemann-Pick A (NPA) patient fibroblasts; experiment: Lysosomal volume via LysoTracker; type: cell-based, human; conditions: 1 mM, 6 days, vs untreated
[7] = test system: AB variant of Tay-Sachs disease patient fibroblasts; experiment: Glycosphingolipid (GSL) levels via HPLC; type: cell-based, human; conditions: 1 mM for 6 days
[8] = test system: Mucopolysaccharidosis Type VII (MPS VII) patient fibroblasts; experiment: Lysosomal volume via LysoTracker; type: cell-based, human; conditions: 1 mM, 6 days, vs untreated
[9] = test system: patients with ataxia telangiectasia; experiment: Case studies, SARA, SCAFI, visual analog scale and reports; type: in vivo, human
Text: For example, to evaluate overall neurological status, mDRS, a four-domain scale (ambulation, manipulation, language and swallowing), may be applied. Cerebellar function may be evaluated using SARA, an eight-item clinical rating scale (gait, stance, sitting, speech, fine motor function and taxis; range 0-40, where 0 is the best neurological status and 40 the worst), and SCAFI, comprising the 8-m-Walking-Time (8MW; performed by having patients walking twice as quickly as possible from one line to another excluding turning), 9-Hole-Peg-Test (9HPT) and the number of “PATA” repetitions over 10 s. Subjective impairment and quality of life may be evaluated using the EQ-5D-5L questionnaire and VAS. To assess ocular motor function, 3-dimensional videooculography (EyeSeeCam) may be used to measure the peak velocity of saccades, gain of smooth pursuit, peak slow phase velocity of gaze-evoked nystagmus (gaze-holding function), peak slow phase velocity of optokinetic nystagmus, and gain of horizontal vestibulo-ocular reflex. To evaluate the cognitive state, WAIS-R or WISC-W, and MoCA, assessing different cognitive domains, including attention and concentration, executive functions, memory, language, visuoconstructional skills, conceptual thinking, calculations, and orientation with a maximum of 30 points and a cut-off score of 26, may be used. The skilled person will know how to perform these and other such tests.
After one month of treatment, the patient was re-evaluated. […] Examination indicated a Scale for Assessment and Rating of Ataxia (SARA) score of 15.5/40. Results from the patient's Spinocerebellar Ataxia Functional Index (SCAFI) analysis were: • Mean 8-meters Walking Test (8MW): 18.5 s • MW 9-Hole Pegboard Test Dominant (9HPTD) (right): 77.9 s • MW 9-Hole Pegboard Test Non-Dominant (9HPTND): 101.3 s • MW PATA Word Test: 13 • Visual analog scale (as evaluated by the patient): 85
After one month of treatment, the patient was re-evaluated. […] Examination indicated a Scale for Assessment and Rating of Ataxia (SARA) score of 23.5/40.
After slightly over 7 months of treatment, the patient was re-evaluated. […] Examination indicated a Scale for Assessment and Rating of Ataxia (SARA) score of 21.5/40.
After slightly over 1 month of treatment, the patient was re-evaluated. […] The patient also reported that drinking was easier and no longer needed a straw. […] Examination indicated a Scale for Assessment and Rating of Ataxia (SARA) score of 18.5/40.
After about 1 month of treatment, the patient was re-evaluated. […] On medication, they were able to walk with only holding the caregiver's hand.
The patient was evaluated after one month and six months of treatment, respectively. […] The patient, however, was suffering from anxiety, which would be expected to negatively influence the response.

[10] = test system: patient with downbeat nystagmus; experiment: Gait analysis; type: in vivo, human; conditions: Ex. 12 Patient 2
Text: Medication was then suspended. About one month after stopping acetyl-DL-leucine treatment, the patient's symptomatology worsened.

[11] = test system: fibroblast cell line from an NPC patient; experiment: Lysosomal volume via LysoTracker; type: cell-based, human; conditions: fibroblasts from NPC patient of mild clinical severity; 1 mM
Method: A fibroblast cell line from an NPC patient was treated for 3 days with N-acetyl-DL-leucine (1 mM) and relative lysosomal volume was quantified via LysoTracker, a fluorescent dye that accumulates in acidic organelles. Increased LysoTracker fluorescence is indicative of an increase in lysosomal size and/or number, and is a hallmark of NPC cells.

[12] = Ex. 7 Patient 1, ALS, after a further 20 days
[13] = Ex. 15 Patient 2, after one month
[14] = Ex. 15 Patient 3, after slightly over 7 months
[15] = Ex. 15 Patient 4, after slightly over 1 month
[16] = Ex. 15 Patient 5, after almost 7 months

SMILES: CC(=O)NC(CC(C)C)C(=O)O (racemic) [acetyl-DL-leucine]
- LysoTracker fluorescence (lysosomal volume) [1]: statistically significant reduction in LysoTracker fluorescence
- speech ([2]; Ex. 7 Patient 1, ALS, 3 then 5 gram per day, after 15 days): significant improvement of speech
- speech after stopping treatment ([2]; Ex. 7 Patient 1, ALS, about 7 days plus 1-2 additional weeks off treatment): deterioration of speech
- paresis of the right foot-dorsiflexors and foot drop [2, 12]: improved dramatically and were clinically hardly detectable
- sleep [2, 12]: improvement in sleep
- speech [2, 12]: further improvement of speech
- symptomatology after resuming treatment ([2]; Ex. 7 Patient 1, ALS, resumed after second discontinuation): improved symptomatology, in particular speech
- symptoms on re-examination ([2]; Ex. 7 Patient 2, ALS, 3 then 5 g per day, after approximately 2 months): progredient deterioration of the motor function of the left hand, but a discrete improvement of walking
- symptomatology ([2]; Ex. 7 Patient 3, ALS, 3 then 5 g per day, after one month): did not report improvement of symptomatology
- symptomatology ([2]; Ex. 7 Patient 4, ALS, 3 then 5 g per day, after about one month): subjective improvement of dysphagia and less hypersalivation
- symptomatology after suspension ([2]; Ex. 7 Patient 4, ALS, 10 days after therapy was suspended): worsening of symptomatology
- GSL levels [3]: this decrease was statistically significant
- gait analysis, summary [4]: improvement of gait speed, and reductions of track width and gait fluctuations
- safety profile (patients with vertigo): excellent safety profile
- benefit in cerebellar ataxia ([5]; another case series (Pelz et al. 2015)): did not find benefit
- cerebellar ataxia symptoms ([5]; case series with cerebellar patients (Strupp et al. 2013)): symptomatic improvement of cerebellar ataxia
- temporal gait variability ([5]; quantitative gait analysis (Schniepp et al. 2015)): improved temporal gait variability
- LysoTracker fluorescence (lysosomal volume) [6]: statistically significant reduction in LysoTracker fluorescence
- GSL levels [7]: trend towards decreased GSL levels
- LysoTracker fluorescence (lysosomal volume) [8]: trend in reducing LysoTracker fluorescence
- caregivers' report ([9]; Ex. 15 Patient 1, after one month): improvement of speech and gait
- MW PATA Word Test ([9]; Ex. 15 Patient 1, after one month, before 12.5): 13
- Mean 8-meters Walking Test (8MW) [9, 13]: not able to perform without support
- caregivers' report [9, 13]: improvement of fine motor function, hand tremor, and speech
- MW PATA Word Test ([9]; Ex. 15 Patient 2, after one month, before 13.5): 14
- MW 9-Hole Pegboard Test Non-Dominant (9HPTND) ([9]; Ex. 15 Patient 2, after one month, before 299.2 s): 300 s
- MW 9-Hole Pegboard Test Dominant (9HPTD) (right) ([9]; Ex. 15 Patient 2, after one month, before 300 s): 300 s
- Mean 8-meters Walking Test (8MW) [9, 14]: not able to perform
- caregivers' and patient's report [9, 14]: general improvement of well-being
- MW PATA Word Test ([9]; Ex. 15 Patient 3, after slightly over 7 months, before 14): 10
- Mean 8-meters Walking Test (8MW) [9, 15]: not able to perform
- patient's and parent's report [9, 15]: improvement in handwriting
- mother's report ([9]; Ex. 15 Patient 5, ataxia telangiectasia, 5 g/day, after about 1 month): significant improvement of stability of the gait
- Mean 8-meters Walking Test (8MW) ([9]; Ex. 15 Patient 5, after about 1 month): not able to walk without support
- MW PATA Word Test ([9]; Ex. 15 Patient 5, after about 1 month, before 6): 7.5
- MW PATA Word Test [9, 16]: 11
- mother's report [9, 16]: significantly more stable gait
- clinical re-evaluation ([9]; Ex. 15 Patient 5, after slightly over a year): improved social interaction, activity, and agility
- symptoms ([9]; Ex. 15 Patient 6, ataxia telangiectasia, 1.5 then 3 g/day, after one month): increased fine motor skills with reduced hand tremor
- symptoms ([9]; Ex. 15 Patient 6, after six months): stable general conditions, stable gait and stance, and improved handwriting
- self-chosen velocity ([10]; about one month after stopping treatment, decrease from 85): 72 cm/s
- self-chosen velocity ([10]; on treatment, increase from 56): 85 cm/s
- LysoTracker fluorescence (lysosomal volume) [11]: significant decrease in LysoTracker fluorescence
